Calls of active or inactive are those of the source. Rule as the data show it, for most assays here: actives have a measured IC50 and inactives only a lower limit.
Assays:
[1] = biological target: Sphingosine 1-phosphate receptor 2 (Homo sapiens, UniProt O95136); assay: Late-stage fluorescence-based dose-response cell-based counterscreen assay to identify agonists of the Sphingosine 1-Phosphate Receptor 3 (S1P3): Sphingosine 1-Phosphate Receptor 2 (S1P2) agonist assay.; type: functional
[2] = biological target: T1, Sphingosine 1-phosphate receptor 4 (Homo sapiens, UniProt O95977); assay: Late-stage fluorescence-based dose-response cell-based counterscreen assay to identify agonists of the Sphingosine 1-Phosphate Receptor 3 (S1P3): Sphingosine 1-Phosphate Receptor 4 (S1P4) agonist assay.; type: functional
T1 sequence (O95977 whole entry): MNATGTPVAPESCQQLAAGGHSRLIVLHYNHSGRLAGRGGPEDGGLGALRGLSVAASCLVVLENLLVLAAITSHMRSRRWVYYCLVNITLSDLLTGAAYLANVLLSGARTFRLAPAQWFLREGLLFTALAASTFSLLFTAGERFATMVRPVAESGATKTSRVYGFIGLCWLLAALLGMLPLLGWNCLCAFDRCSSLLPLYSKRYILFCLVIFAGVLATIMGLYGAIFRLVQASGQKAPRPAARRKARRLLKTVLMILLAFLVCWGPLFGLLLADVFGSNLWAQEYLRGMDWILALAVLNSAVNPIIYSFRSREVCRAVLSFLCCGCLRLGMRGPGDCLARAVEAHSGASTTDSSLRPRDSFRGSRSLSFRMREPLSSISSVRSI

[3] = A cytotoxicity screen of small molecule inhibitors of the PhoP region in Salmonella typhi identified in the primary screen. [Related pubchem assays: 1850, 1864, 1985 ]; type: functional
[4] = tested on: HEK293; assay: EBV LMP1 TES2 canonical NF-kB signalling blockers – cell-based, HEK293, luciferase, cherry-pick, dose response (AID 588343); type: functional; conditions: Homo sapiens
[5] = biological target: Latent membrane protein 1 (Human herpesvirus 4 (strain B95-8), UniProt P03230); assay: LMP1 TES1 pathway selectivity over dsRED control – imaging, HEK293T, dual-color eGFP/dsRED, cherry-picks, selectivity assay for LMP1 NF-kB inhibitor project, dose response (AID 588398); type: functional, cell-based
Chain of Latent membrane protein 1 (P03230 whole entry): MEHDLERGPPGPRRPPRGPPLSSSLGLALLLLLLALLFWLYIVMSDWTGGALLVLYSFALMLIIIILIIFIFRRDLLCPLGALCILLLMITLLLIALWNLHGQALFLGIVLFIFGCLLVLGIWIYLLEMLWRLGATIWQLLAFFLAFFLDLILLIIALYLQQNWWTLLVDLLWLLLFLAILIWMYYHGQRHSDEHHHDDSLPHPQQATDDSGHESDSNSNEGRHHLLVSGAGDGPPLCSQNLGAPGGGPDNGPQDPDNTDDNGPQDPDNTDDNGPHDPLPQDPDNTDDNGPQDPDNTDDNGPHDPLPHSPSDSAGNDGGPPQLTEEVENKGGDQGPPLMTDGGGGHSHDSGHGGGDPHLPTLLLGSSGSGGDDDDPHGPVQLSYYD

[6] = biological target: T2, Microphthalmia-associated transcription factor (Homo sapiens, UniProt O75030); assay: reducers of TRPM1 reporter luminescence, concentration series – cell-based, SK-MEL-5, cherry-picked, set 3, MITF inhibitor project, dose response (AID 493073); type: functional;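 also: SK-MEL-5 melanoma cells with luciferase driven by the MITF target TRPM1 promoter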
T2 sequence (O75030 whole entry): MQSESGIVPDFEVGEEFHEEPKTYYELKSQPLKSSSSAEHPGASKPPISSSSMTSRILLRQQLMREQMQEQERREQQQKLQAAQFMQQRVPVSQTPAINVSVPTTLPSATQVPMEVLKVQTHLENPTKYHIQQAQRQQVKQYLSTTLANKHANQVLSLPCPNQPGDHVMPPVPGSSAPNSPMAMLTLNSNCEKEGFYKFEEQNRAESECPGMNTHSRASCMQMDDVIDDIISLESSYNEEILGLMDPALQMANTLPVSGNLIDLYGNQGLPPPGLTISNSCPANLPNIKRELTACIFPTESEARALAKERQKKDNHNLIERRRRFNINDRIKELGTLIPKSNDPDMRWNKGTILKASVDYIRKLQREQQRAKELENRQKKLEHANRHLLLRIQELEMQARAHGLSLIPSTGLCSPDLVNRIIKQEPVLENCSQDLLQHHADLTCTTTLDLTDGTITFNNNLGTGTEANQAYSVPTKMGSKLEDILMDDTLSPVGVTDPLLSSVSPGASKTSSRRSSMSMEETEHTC

[7] = biological target: T3, Sentrin-specific protease 7 (Homo sapiens, UniProt Q9BQF6); assay: inhibition of human SENP7 cleavage activity – biochemical, luminescence, SAR follow-up (AID 504497); type: functional
T3 sequence (Q9BQF6 whole entry): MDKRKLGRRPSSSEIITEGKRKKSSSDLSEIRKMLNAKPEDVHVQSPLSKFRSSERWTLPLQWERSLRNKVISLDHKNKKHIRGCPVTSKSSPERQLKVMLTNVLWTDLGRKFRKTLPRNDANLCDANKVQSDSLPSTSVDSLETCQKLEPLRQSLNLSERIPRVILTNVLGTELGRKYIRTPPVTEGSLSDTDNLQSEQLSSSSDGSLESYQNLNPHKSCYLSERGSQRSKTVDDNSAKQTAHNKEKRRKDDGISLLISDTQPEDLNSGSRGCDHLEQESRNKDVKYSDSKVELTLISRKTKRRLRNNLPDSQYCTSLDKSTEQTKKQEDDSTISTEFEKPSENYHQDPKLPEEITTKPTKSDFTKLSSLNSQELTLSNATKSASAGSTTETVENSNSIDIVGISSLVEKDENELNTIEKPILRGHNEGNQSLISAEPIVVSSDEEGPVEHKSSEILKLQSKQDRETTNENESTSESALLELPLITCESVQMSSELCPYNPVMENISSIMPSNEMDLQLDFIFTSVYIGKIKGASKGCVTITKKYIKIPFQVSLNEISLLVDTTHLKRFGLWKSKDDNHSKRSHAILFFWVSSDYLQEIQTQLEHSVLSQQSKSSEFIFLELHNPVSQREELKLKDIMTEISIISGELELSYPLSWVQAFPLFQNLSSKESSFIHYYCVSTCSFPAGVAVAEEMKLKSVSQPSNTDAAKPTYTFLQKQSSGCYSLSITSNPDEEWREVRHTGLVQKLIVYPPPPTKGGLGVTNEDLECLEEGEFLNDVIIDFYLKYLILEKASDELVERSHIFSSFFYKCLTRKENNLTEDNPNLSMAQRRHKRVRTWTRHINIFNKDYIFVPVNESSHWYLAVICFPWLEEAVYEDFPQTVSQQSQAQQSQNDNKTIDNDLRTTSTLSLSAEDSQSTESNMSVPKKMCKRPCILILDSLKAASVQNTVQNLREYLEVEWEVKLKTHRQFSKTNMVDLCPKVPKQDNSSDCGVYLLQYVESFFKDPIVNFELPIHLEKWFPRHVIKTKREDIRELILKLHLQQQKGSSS

[8] = biological target: T4, Sentrin-specific protease 8 (Homo sapiens, UniProt Q96LD8); assay: inhibition of sentrin protease 8 – biochemical, luminescence, set 2, SAR follow-up (AID 588601); type: functional
T4 sequence (Q96LD8 whole entry): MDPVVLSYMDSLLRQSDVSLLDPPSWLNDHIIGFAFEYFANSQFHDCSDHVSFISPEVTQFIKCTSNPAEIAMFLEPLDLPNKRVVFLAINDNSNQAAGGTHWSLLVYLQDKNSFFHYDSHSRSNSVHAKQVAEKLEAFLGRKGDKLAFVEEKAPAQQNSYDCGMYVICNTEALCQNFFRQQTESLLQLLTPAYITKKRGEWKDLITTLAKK

[9] = biological target: T3, Sentrin-specific protease 7; assay: inhibition of human SENP7 cleavage activity – biochemical, luminescence, set 2, SAR follow-up (AID 588600); type: functional
[10] = biological target: T4, Sentrin-specific protease 8; assay: inhibition of human SENP8 cleavage activity – biochemical, luminescence, SAR follow-up (AID 504501); type: functional
[11] = biological target: T5, Sentrin-specific protease 6 (Homo sapiens, UniProt Q9GZR1); assay: SAR Analysis of small molecule inhibitors of Sentrin-specific protease 6 (SENP6) using a Luminescent assay. [Related pubchem assays (depositor defined):AID2582, AID2599]; type: functional
T5 sequence (Q9GZR1 whole entry): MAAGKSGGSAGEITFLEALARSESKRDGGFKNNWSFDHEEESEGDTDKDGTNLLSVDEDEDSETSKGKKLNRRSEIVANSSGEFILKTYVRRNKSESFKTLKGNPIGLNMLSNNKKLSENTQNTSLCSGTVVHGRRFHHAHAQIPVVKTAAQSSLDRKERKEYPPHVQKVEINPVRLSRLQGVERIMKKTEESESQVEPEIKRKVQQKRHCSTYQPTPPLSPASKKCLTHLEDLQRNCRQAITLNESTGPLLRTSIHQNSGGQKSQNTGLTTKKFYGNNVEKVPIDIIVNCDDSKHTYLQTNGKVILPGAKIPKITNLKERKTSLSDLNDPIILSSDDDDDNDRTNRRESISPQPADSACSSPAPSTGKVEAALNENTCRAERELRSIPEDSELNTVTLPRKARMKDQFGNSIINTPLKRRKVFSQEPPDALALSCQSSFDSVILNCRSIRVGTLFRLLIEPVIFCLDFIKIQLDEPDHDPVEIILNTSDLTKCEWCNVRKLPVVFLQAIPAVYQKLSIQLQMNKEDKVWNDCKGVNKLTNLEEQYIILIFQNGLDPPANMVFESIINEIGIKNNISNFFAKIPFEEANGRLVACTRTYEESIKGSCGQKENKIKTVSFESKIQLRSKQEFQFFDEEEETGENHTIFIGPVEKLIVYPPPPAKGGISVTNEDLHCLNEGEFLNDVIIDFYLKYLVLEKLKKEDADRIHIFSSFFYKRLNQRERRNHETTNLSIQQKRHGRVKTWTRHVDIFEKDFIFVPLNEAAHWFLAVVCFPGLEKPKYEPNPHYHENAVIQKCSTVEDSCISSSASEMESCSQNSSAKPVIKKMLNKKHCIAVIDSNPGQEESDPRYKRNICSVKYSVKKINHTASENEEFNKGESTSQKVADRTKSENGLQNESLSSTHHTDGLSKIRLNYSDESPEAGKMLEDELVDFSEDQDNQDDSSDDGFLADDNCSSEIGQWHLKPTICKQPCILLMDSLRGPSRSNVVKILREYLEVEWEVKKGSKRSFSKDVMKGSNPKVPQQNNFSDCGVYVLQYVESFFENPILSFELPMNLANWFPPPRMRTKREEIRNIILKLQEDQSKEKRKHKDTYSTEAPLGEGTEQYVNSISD

[12] = biological target: T6, Caspase-3 (Homo sapiens, UniProt P42574); assay: inhibition of recombinant caspase-3 activity – biochemical, luminescence, set 2, selectivity assay for SENP protease inhibitor project, SAR follow-up (AID 588599); type: functional
T6 sequence (P42574 whole entry): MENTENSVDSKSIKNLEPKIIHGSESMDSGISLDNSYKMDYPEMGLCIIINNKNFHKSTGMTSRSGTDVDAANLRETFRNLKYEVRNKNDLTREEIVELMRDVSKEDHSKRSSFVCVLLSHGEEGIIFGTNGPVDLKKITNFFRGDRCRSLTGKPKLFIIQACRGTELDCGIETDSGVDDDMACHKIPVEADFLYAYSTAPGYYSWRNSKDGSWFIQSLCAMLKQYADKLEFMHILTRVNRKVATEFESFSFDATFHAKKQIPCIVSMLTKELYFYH

[13] = biological target: T6, Caspase-3; assay: SAR Analysis of small molecule inhibitors of Sentrin-specific proteases (SENPs) using a Caspase-3 Selectivity assay. [Related pubchem assays (depositor defined):AID2540, AID2599, AID434973, AID489001]; type: functional

Chain of Sphingosine 1-phosphate receptor 2 (O95136 whole entry): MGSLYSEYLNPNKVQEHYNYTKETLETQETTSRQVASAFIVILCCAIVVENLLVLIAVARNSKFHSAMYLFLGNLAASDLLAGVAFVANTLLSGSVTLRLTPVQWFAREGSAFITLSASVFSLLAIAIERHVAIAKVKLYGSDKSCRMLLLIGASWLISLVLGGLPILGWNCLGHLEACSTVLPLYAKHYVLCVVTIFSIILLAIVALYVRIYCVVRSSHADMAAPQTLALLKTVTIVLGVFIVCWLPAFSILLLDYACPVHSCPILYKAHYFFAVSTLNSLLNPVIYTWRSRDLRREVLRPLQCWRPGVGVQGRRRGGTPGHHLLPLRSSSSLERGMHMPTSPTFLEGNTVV

## O=C(NC1CCCCC1)c1cc(C2CC2)on1
[1]
  EC50: > 50 µM (inactive)
[2]
  EC50: > 50 µM (inactive)

## Cc1cc(NCCCn2ccnc2)n2ncc(-c3ccccc3)c2n1
[3]
  EC50: > 50 µM (active)
[4]
  AC50: 2.56 µM (active)
[5]
  AC50: 206 µM (active)
[6]
  AC50: 11 µM (active)

## Fc1ccc(-c2noc(/C=C/c3ccccc3)n2)cc1
[7]
  IC50: 8.8 µM (active)
[8]
  IC50: 2.98 µM (active)
[9]
  IC50: 3.38 µM (active)
[10]
  IC50: > 99 µM (inactive)
[11]
  IC50: > 99 µM (inactive)
[12]
  IC50: 20.5 µM (active)
[13]
  IC50: 18 µM (active)
